From patent US20050038111A1, “Pharmaceutical formulation comprising bicalutamide” (priority 2001, published 2005)
Structures can show the parent of a compound that is named as a salt.

Columns and labels:
[1] = Crystallinity assessment by X-ray powder diffraction (XRPD); format: physicochemical
Method: Dispersion prepared from a solution of bicalutamide and tamoxifen citrate.
X-ray diffraction analysis was performed according to standard methods which can be found in e.g. Bunn, C. W. (1948), Chemical Crystallography, Clarendon Press, London; or Klug, H. P. & Alexander, L. E. (1974), X-Ray Diffraction Procedures, John Wiley and Sons, New York.

[2] = pH shift dissolution test (SGF pH 1.5 then pH 6.5); format: physicochemical; settings: 1 h SGF pH 1.5 then 1 h at pH 6.5

- crystalline tamoxifen citrate by XRPD [1]: crystalline
- tamoxifen in solution post shift [2]: approx. 80%
Compound: CC/C(=C(\c1ccccc1)c1ccc(OCCN(C)C)cc1)c1ccccc1 [tamoxifen citrate, (Z)-2-[p-(1,2-diphenylbut-1-enyl)phenoxy]ethyldimethylamine]
